In US20230024283A1, “HERBICIDAL COMPOUNDS” (SYNGENTA CROP PROTECTION AG, priority 2020, published 2023):

Key:
Assay in all cases: Post-emergence herbicidal glasshouse test
Type in all cases: in vivo
Details in all cases: post-emergence spray, evaluated after 13 days, five-point scale
Setaria faberi (SETFA) = system: Setaria faberi (SETFA)
Method: (§1) Seeds of a variety of test species are sown in standard soil in pots (Ipomoea hederacea (IPOHE), Abutilon theophrasti (ABUTH), Amaranthus retoflexus (AMARE), Echinochloa crus-galli (ECHCG), Setaria faberi (SETFA)). After 8 days cultivation under controlled conditions in a glasshouse (at 24/16° C., day/night; 14 hours light; 65% humidity), the plants are sprayed with an aqueous spray solution derived from the formulation of the technical active ingredient in acetone / water (50:50) solution containing 0.5% Tween 20 (polyoxyethelyene sorbitan monolaurate, CAS RN 9005-64-5). Compounds are applied at 1000 g/ha unless otherwise stated. The test plants are then grown in a glasshouse under controlled conditions in a glasshouse (at 24/16° C., day/night; 14 hours light; 65% humidity) and watered twice daily. After 13 days the test is evaluated for the percentage damage caused to the plant. The biological activities are shown in the following table on a five-point scale (5=81-100%; 4=61-80%; 3=41-60%; 2=21-40%; 1=0-20%).

[1] = system: Abutilon theophrasti (ABUTH)
Method: as §1

[2] = system: Echinochloa crus-galli (ECHCG)
Method: as §1

[3] = system: Amaranthus retoflexus (AMARE)
Method: as §1

[4] = system: Ipomoea hederacea (IPOHE)
Method: as §1

N#Cc1cc(-c2cc(F)cc(Cl)c2)c(O)c(C(F)(F)F)c1 [Compound 1.148]
percentage damage caused to the plant, SETFA (Setaria faberi (SETFA); applied at 500 gai/ha): 1 (1=0-20%)
percentage damage caused to the plant, ABUTH ([1]; applied at 500 gai/ha): 1 (1=0-20%)
percentage damage caused to the plant, ECHCG ([2]; applied at 500 gai/ha): 1 (1=0-20%)
percentage damage caused to the plant, AMARE ([3]; applied at 500 gai/ha): 3 (3=41-60%)
percentage damage caused to the plant, IPOHE ([4]; applied at 500 gai/ha): 4 (4=61-80%)

N#Cc1cc(-c2ccc(OC(F)(F)F)cc2)c(O)c(C(F)(F)F)c1 [Compound 1.151]
percentage damage caused to the plant, SETFA (Setaria faberi (SETFA); 1000 g/ha): 1 (1=0-20%)
percentage damage caused to the plant, ABUTH ([1]; 1000 g/ha): 1 (1=0-20%)
percentage damage caused to the plant, ECHCG ([2]; 1000 g/ha): 1 (1=0-20%)
percentage damage caused to the plant, AMARE ([3]; 1000 g/ha): 5 (5=81-100%)
percentage damage caused to the plant, IPOHE ([4]; 1000 g/ha): 3 (3=41-60%)

N#Cc1cc(-c2ccnc(C(F)(F)F)c2)c(O)c(C(F)(F)F)c1 [Compound 1.158]
percentage damage caused to the plant, SETFA (Setaria faberi (SETFA); 1000 g/ha): 1 (1=0-20%)
percentage damage caused to the plant, ABUTH ([1]; 1000 g/ha): 1 (1=0-20%)
percentage damage caused to the plant, ECHCG ([2]; 1000 g/ha): 1 (1=0-20%)
percentage damage caused to the plant, AMARE ([3]; 1000 g/ha): 4 (4=61-80%)
percentage damage caused to the plant, IPOHE ([4]; 1000 g/ha): 2 (2=21-40%)

N#Cc1cc(-c2ccc(F)c(Cl)c2)c(O)c(C(F)(F)F)c1 [Compound 1.160]
percentage damage caused to the plant, SETFA (Setaria faberi (SETFA); 1000 g/ha): 1 (1=0-20%)
percentage damage caused to the plant, ABUTH ([1]; 1000 g/ha): 1 (1=0-20%)
percentage damage caused to the plant, ECHCG ([2]; 1000 g/ha): 1 (1=0-20%)
percentage damage caused to the plant, AMARE ([3]; 1000 g/ha): 5 (5=81-100%)
percentage damage caused to the plant, IPOHE ([4]; 1000 g/ha): 2 (2=21-40%)

Cc1cc(F)cc(-c2cc(C#N)cc(C(F)(F)F)c2O)c1 [Compound 1.162]
percentage damage caused to the plant, SETFA (Setaria faberi (SETFA); 1000 g/ha): 1 (1=0-20%)
percentage damage caused to the plant, ABUTH ([1]; 1000 g/ha): 1 (1=0-20%)
percentage damage caused to the plant, ECHCG ([2]; 1000 g/ha): 1 (1=0-20%)
percentage damage caused to the plant, AMARE ([3]; 1000 g/ha): 2 (2=21-40%)
percentage damage caused to the plant, IPOHE ([4]; 1000 g/ha): 3 (3=41-60%)

N#Cc1cc(-c2cccc(OC(F)(F)F)c2)c(O)c(C(F)(F)F)c1 [Compound 1.165]
percentage damage caused to the plant, SETFA (Setaria faberi (SETFA); 1000 g/ha): 1 (1=0-20%)
percentage damage caused to the plant, ABUTH ([1]; 1000 g/ha): 1 (1=0-20%)
percentage damage caused to the plant, ECHCG ([2]; 1000 g/ha): 1 (1=0-20%)
percentage damage caused to the plant, AMARE ([3]; 1000 g/ha): 3 (3=41-60%)
percentage damage caused to the plant, IPOHE ([4]; 1000 g/ha): 4 (4=61-80%)

N#Cc1cc(-c2cc(F)c(F)c(F)c2)c(O)c(C(F)(F)F)c1 [Compound 1.182]
percentage damage caused to the plant, SETFA (Setaria faberi (SETFA); 1000 g/ha): 1 (1=0-20%)
percentage damage caused to the plant, ABUTH ([1]; 1000 g/ha): 4 (4=61-80%)
percentage damage caused to the plant, ECHCG ([2]; 1000 g/ha): 1 (1=0-20%)
percentage damage caused to the plant, AMARE ([3]; 1000 g/ha): 5 (5=81-100%)
percentage damage caused to the plant, IPOHE ([4]; 1000 g/ha): 5 (5=81-100%)

N#Cc1cc(-c2cc(F)cc(F)c2)c(O)c(C(F)(F)F)c1 [Compound 1.183]
percentage damage caused to the plant, SETFA (Setaria faberi (SETFA); 1000 g/ha): 2 (2=21-40%)
percentage damage caused to the plant, ABUTH ([1]; 1000 g/ha): 4 (4=61-80%)
percentage damage caused to the plant, ECHCG ([2]; 1000 g/ha): 2 (2=21-40%)
percentage damage caused to the plant, AMARE ([3]; 1000 g/ha): 5 (5=81-100%)
percentage damage caused to the plant, IPOHE ([4]; 1000 g/ha): 2 (2=21-40%)

N#Cc1cc(-n2cc(F)cn2)c(O)c(C(F)(F)F)c1 [Compound 1.186]
percentage damage caused to the plant, SETFA (Setaria faberi (SETFA); 1000 g/ha): 1 (1=0-20%)
percentage damage caused to the plant, ABUTH ([1]; 1000 g/ha): 5 (5=81-100%)
percentage damage caused to the plant, ECHCG ([2]; 1000 g/ha): 1 (1=0-20%)
percentage damage caused to the plant, AMARE ([3]; 1000 g/ha): 2 (2=21-40%)
percentage damage caused to the plant, IPOHE ([4]; 1000 g/ha): 4 (4=61-80%)

Cc1cn(-c2cc(C#N)cc(C(F)(F)F)c2O)nc1C(F)(F)F [Compound 1.187]
percentage damage caused to the plant, SETFA (Setaria faberi (SETFA); 1000 g/ha): 1 (1=0-20%)
percentage damage caused to the plant, ABUTH ([1]; 1000 g/ha): 1 (1=0-20%)
percentage damage caused to the plant, ECHCG ([2]; 1000 g/ha): 1 (1=0-20%)
percentage damage caused to the plant, AMARE ([3]; 1000 g/ha): 5 (5=81-100%)
percentage damage caused to the plant, IPOHE ([4]; 1000 g/ha): 1 (1=0-20%)

N#Cc1cc(-n2cc(C(F)(F)F)cn2)c(O)c(C(F)(F)F)c1 [Compound 1.190]
percentage damage caused to the plant, SETFA (Setaria faberi (SETFA); 1000 g/ha): 1 (1=0-20%)
percentage damage caused to the plant, ABUTH ([1]; 1000 g/ha): 1 (1=0-20%)
percentage damage caused to the plant, ECHCG ([2]; 1000 g/ha): 1 (1=0-20%)
percentage damage caused to the plant, AMARE ([3]; 1000 g/ha): 3 (3=41-60%)
percentage damage caused to the plant, IPOHE ([4]; 1000 g/ha): 1 (1=0-20%)

N#Cc1cc(-c2cccc(F)c2)c(O)c([N+](=O)[O-])c1 [Compound 1.191]
percentage damage caused to the plant, SETFA (Setaria faberi (SETFA); 1000 g/ha): 2 (2=21-40%)
percentage damage caused to the plant, ABUTH ([1]; 1000 g/ha): 4 (4=61-80%)
percentage damage caused to the plant, ECHCG ([2]; 1000 g/ha): 2 (2=21-40%)
percentage damage caused to the plant, AMARE ([3]; 1000 g/ha): 5 (5=81-100%)
percentage damage caused to the plant, IPOHE ([4]; 1000 g/ha): 3 (3=41-60%)

N#Cc1cc(C#N)c(O)c(-c2cccc(F)c2)c1 [Compound 1.194]
percentage damage caused to the plant, SETFA (Setaria faberi (SETFA); 1000 g/ha): 2 (2=21-40%)
percentage damage caused to the plant, ABUTH ([1]; 1000 g/ha): 3 (3=41-60%)
percentage damage caused to the plant, ECHCG ([2]; 1000 g/ha): 1 (1=0-20%)
percentage damage caused to the plant, AMARE ([3]; 1000 g/ha): 2 (2=21-40%)
percentage damage caused to the plant, IPOHE ([4]; 1000 g/ha): 3 (3=41-60%)

N#Cc1cc(-n2cc(Cl)c(C(F)F)n2)c(O)c(C(F)(F)F)c1 [Compound 1.250]
percentage damage caused to the plant, SETFA (Setaria faberi (SETFA); 1000 g/ha): 2 (2=21-40%)
percentage damage caused to the plant, ABUTH ([1]; 1000 g/ha): 2 (2=21-40%)
percentage damage caused to the plant, ECHCG ([2]; 1000 g/ha): 2 (2=21-40%)
percentage damage caused to the plant, AMARE ([3]; 1000 g/ha): 5 (5=81-100%)
percentage damage caused to the plant, IPOHE ([4]; 1000 g/ha): 5 (5=81-100%)

N#Cc1cc(-n2cc(Cl)c(C3CC3)n2)c(O)c(C(F)(F)F)c1 [Compound 1.259]
percentage damage caused to the plant, SETFA (Setaria faberi (SETFA); 1000 g/ha): 2 (2=21-40%)
percentage damage caused to the plant, ABUTH ([1]; 1000 g/ha): 3 (3=41-60%)
percentage damage caused to the plant, ECHCG ([2]; 1000 g/ha): 2 (2=21-40%)
percentage damage caused to the plant, AMARE ([3]; 1000 g/ha): 5 (5=81-100%)
percentage damage caused to the plant, IPOHE ([4]; 1000 g/ha): 5 (5=81-100%)

CC(=O)Oc1c(-c2cccc(F)c2)cc(C#N)cc1C(F)(F)F [Compound 2.002]
percentage damage caused to the plant, SETFA (Setaria faberi (SETFA); 1000 g/ha): 1 (1=0-20%)
percentage damage caused to the plant, ABUTH ([1]; 1000 g/ha): 5 (5=81-100%)
percentage damage caused to the plant, ECHCG ([2]; 1000 g/ha): 4 (4=61-80%)
percentage damage caused to the plant, AMARE ([3]; 1000 g/ha): 5 (5=81-100%)
percentage damage caused to the plant, IPOHE ([4]; 1000 g/ha): 5 (5=81-100%)

CC(C)C(=O)Oc1c(Cl)cc(C#N)cc1-c1cccc(F)c1 [Compound 2.006]
percentage damage caused to the plant, SETFA (Setaria faberi (SETFA); 1000 g/ha): 1 (1=0-20%)
percentage damage caused to the plant, ABUTH ([1]; 1000 g/ha): 4 (4=61-80%)
percentage damage caused to the plant, ECHCG ([2]; 1000 g/ha): 1 (1=0-20%)
percentage damage caused to the plant, AMARE ([3]; 1000 g/ha): 3 (3=41-60%)
percentage damage caused to the plant, IPOHE ([4]; 1000 g/ha): 1 (1=0-20%)
